Common to all, as to experiment: biochemical
Common to all, as to set-up: Eurofins recombinant human kinase profiling, remaining kinase activity as % of control, 10 uM ATP
Common to all, as to conditions: ATP 10 uM; read-out: %Ctrl@10 μM

In one assay the target is T1, ALK4(h) (Homo sapiens, UniProt P36896).
T1 construct: gene ACVR1B
In outline: (§1)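 Recombinant human kinases, 401 in total, screened using an outsourced kinase profiling assay.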

The next assay has as its target ATR/ATRIP(h) (Homo sapiens, UniProt Q13535). Summed up: as §1
A further assay deals with CaMKK2(h) (Homo sapiens, UniProt Q96RR4). Summed up:
as §1

A further assay deals with T2, DRAK2(h) (Homo sapiens, UniProt O94768).
T2 construct: gene STK17B
Summed up:
as §1

The target of a further assay is DYRK1B(h) (Homo sapiens, UniProt Q9Y463). Summed up:
as §1

A further assay has as its target EGFR(h) (Homo sapiens, UniProt P00533). Summed up: as §1
In another assay the target is Lck(h) (Homo sapiens, UniProt P06239). In outline:
as §1

Another assay concerns the target MAP4K3(h) (Homo sapiens, UniProt Q8IVH8). Summed up: as §1
In a further assay the target is MARK4(h) (Homo sapiens, UniProt Q96L34). In outline: as §1
The target of a further assay is MELK(h) (Homo sapiens, UniProt Q14680). In outline:
as §1

The target in a further assay is T3, MINK(h) (Homo sapiens, UniProt Q8N4C8).
T3 construct: gene MINK1
Summed up: as §1

The next assay concerns the target T4, MST2(h) (Homo sapiens, UniProt Q13188).
T4 construct: gene STK3
In outline:
as §1

The next assay concerns the target T5, PDK1(h) (Homo sapiens, UniProt O15530).
T5 construct: gene PDPK1
Summed up:
as §1

The target in another assay is T6, PRAK(h) (Homo sapiens, UniProt Q8IW41).
T6 construct: gene MAPKAPK5
Summed up:
as §1

Another assay deals with Ret(h) (Homo sapiens, UniProt P07949). Summed up: as §1
In another assay the target is SRPK2(h) (Homo sapiens, UniProt P78362). In outline:
as §1

In the next assay the target is Syk(h) (Homo sapiens, UniProt P43405). In outline:
as §1

A further assay has as its target T7, TAO3(h) (Homo sapiens, UniProt Q9H2K8).
T7 construct: gene TAOK3
In outline: as §1

The target of a further assay is TSSK2(h) (Homo sapiens, UniProt Q96PF2). In outline:
as §1

Another assay addresses TTBK2(h) (Homo sapiens, UniProt Q6IQ55). In outline:
as §1

The target in a further assay is T8, TrkB(h) (Homo sapiens, UniProt Q16620).
T8 construct: gene NTRK2
In outline: as §1

For another assay, the target named is ULK1(h) (Homo sapiens, UniProt O75385). In outline:
as §1

The next assay addresses T9, cKit(V654A)(h) (Homo sapiens, UniProt P10721, V654A).
T9 construct: gene KIT
In outline:
as §1

Data on one molecule can be found in article PMC9719519, “Non-classical ferroptosis inhibition by a small molecule targeting PHB2” (Nature Communications, 2022).

T5 sequence (O15530 whole entry): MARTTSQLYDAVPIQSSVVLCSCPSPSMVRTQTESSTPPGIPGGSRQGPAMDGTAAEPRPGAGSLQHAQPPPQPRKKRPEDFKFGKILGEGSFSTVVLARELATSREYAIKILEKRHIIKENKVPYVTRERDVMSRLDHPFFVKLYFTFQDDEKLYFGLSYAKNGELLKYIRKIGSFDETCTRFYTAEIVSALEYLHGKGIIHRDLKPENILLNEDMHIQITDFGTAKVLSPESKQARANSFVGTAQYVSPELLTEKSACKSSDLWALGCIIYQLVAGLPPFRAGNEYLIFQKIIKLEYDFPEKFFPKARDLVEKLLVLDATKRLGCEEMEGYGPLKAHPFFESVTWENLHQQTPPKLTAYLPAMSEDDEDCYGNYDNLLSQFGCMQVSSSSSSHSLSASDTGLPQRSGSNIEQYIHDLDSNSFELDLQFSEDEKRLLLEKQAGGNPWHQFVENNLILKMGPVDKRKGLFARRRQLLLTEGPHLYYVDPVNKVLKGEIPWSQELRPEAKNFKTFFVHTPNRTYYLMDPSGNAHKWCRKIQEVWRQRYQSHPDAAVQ
EGFR(h), sequence (P00533 whole entry): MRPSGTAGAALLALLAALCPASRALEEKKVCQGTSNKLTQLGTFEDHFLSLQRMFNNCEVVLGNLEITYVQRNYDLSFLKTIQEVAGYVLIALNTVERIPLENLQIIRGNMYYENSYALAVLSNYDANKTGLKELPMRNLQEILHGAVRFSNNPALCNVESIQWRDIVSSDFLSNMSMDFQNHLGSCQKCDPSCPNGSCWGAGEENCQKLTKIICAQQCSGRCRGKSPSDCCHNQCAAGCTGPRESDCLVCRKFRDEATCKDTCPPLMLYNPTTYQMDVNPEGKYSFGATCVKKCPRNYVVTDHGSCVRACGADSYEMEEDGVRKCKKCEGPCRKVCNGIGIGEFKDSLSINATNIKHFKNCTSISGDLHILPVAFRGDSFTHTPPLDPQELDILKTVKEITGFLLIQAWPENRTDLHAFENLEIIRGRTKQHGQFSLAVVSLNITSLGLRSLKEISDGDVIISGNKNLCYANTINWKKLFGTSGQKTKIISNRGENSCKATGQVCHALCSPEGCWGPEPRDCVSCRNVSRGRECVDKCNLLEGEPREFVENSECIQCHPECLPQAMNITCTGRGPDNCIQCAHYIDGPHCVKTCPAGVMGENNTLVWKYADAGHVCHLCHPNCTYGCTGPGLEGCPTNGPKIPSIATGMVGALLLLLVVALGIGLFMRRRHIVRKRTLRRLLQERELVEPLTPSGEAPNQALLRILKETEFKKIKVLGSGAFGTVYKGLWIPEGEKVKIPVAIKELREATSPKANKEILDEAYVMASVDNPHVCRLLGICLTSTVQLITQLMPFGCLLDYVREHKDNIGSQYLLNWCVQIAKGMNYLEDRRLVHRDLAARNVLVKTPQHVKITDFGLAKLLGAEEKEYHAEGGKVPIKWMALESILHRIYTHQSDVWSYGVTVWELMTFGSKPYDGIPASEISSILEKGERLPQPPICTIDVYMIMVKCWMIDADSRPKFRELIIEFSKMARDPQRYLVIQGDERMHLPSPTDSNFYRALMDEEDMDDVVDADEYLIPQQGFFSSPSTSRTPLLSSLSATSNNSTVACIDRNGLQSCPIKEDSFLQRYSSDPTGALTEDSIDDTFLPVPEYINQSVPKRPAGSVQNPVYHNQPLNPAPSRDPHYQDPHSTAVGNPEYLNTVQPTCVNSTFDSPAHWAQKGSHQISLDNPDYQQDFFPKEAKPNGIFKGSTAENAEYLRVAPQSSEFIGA
T7 sequence (Q9H2K8 whole entry): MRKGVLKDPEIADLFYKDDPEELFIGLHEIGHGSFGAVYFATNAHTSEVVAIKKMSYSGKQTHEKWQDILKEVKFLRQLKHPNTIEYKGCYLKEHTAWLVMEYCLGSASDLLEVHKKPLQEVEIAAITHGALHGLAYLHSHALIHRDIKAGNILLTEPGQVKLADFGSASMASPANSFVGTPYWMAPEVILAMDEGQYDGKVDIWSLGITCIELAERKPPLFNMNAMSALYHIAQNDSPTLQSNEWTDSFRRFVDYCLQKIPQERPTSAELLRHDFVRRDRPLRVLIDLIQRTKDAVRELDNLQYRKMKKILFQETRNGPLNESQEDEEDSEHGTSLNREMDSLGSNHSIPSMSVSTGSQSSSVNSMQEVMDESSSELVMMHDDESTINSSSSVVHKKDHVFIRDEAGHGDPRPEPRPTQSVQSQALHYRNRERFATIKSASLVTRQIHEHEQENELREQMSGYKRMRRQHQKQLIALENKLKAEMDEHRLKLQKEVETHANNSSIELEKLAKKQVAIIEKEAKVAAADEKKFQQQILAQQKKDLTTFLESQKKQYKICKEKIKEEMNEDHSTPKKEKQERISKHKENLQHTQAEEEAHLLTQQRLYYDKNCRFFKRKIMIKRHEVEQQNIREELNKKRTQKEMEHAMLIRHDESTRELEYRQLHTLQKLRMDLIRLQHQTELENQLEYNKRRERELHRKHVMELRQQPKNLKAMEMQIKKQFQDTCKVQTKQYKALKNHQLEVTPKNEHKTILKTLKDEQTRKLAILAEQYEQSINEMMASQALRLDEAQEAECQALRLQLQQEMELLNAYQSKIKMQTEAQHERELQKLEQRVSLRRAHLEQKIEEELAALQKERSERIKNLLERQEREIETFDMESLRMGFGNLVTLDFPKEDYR
T9 sequence (P10721 whole entry V654A): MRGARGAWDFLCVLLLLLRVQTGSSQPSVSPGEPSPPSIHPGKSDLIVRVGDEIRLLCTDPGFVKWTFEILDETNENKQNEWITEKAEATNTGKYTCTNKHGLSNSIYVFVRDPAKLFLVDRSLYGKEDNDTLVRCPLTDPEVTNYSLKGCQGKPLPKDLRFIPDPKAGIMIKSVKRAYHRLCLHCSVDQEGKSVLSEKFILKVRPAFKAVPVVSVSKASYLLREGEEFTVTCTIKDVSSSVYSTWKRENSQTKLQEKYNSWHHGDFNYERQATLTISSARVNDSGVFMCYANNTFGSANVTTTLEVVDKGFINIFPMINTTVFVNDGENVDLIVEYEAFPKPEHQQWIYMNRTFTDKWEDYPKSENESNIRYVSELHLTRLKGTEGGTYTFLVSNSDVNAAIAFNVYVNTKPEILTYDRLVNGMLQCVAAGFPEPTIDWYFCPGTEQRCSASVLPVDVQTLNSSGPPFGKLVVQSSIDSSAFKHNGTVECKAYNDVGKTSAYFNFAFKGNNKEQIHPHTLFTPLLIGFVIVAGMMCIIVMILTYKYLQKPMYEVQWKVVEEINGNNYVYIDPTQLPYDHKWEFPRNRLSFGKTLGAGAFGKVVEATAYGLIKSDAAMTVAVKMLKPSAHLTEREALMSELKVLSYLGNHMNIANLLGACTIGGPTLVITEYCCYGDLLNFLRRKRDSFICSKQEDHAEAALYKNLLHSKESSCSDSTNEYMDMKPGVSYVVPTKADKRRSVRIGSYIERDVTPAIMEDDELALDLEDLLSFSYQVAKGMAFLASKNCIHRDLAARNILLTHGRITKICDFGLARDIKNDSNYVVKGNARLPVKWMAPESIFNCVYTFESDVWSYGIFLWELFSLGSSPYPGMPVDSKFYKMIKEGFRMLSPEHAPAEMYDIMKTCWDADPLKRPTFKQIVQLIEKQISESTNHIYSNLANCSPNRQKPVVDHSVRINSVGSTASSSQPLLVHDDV
T4 sequence (Q13188 whole entry): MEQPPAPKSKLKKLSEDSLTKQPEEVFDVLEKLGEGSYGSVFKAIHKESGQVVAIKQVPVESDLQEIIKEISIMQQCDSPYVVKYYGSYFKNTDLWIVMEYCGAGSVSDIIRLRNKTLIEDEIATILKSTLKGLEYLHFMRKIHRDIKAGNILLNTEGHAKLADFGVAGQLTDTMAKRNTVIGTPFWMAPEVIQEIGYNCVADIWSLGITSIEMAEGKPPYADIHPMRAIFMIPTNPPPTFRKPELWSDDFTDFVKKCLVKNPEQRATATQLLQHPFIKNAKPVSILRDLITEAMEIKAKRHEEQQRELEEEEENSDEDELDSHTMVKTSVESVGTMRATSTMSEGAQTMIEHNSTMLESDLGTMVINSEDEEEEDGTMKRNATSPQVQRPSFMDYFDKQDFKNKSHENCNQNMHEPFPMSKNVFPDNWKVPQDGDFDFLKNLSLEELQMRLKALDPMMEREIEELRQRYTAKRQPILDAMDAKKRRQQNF
T1 sequence (P36896 whole entry): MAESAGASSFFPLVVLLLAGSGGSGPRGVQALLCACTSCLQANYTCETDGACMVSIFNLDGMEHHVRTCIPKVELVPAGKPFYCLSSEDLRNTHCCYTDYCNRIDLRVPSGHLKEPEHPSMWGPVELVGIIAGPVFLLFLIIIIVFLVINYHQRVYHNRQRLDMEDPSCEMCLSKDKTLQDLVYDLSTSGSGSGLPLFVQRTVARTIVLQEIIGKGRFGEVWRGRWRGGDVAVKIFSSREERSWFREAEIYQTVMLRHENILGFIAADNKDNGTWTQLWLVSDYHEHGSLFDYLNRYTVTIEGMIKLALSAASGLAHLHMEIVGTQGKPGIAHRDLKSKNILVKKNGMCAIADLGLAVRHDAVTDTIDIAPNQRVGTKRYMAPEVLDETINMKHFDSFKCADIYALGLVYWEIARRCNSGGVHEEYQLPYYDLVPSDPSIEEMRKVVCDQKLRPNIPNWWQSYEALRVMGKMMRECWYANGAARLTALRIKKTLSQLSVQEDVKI
TSSK2(h), sequence (Q96PF2 whole entry): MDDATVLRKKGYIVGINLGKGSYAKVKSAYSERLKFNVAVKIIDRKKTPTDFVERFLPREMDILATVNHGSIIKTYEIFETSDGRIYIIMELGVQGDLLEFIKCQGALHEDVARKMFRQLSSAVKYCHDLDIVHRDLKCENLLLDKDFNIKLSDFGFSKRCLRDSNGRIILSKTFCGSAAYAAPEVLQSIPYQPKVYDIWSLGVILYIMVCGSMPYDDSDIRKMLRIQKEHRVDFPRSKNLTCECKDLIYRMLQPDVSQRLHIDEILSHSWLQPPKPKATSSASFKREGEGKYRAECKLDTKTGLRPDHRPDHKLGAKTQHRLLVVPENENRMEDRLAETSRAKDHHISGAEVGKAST

Regarding `C1=C(c2nc(-c3cnn(C4CCNCC4)c3)cn3cc(-c4ccccc4)nc23)CCOC1` [YL-939], the remaining activity at 10 µM at ALK4(h) turned out to be 117%; at ATR/ATRIP(h), 88%; on CaMKK2(h), 83%; at DRAK2(h) it was 128%; at DYRK1B(h), 97%; on EGFR(h) it was 87%. Besides, the remaining activity at 10 µM at Lck(h) amounted to 122%; on MAP4K3(h), 79%; on MARK4(h), 111%; on MELK(h), 91%; at MINK(h) it was 95%; at MST2(h) it was 78%. Moreover, the remaining activity at 10 µM on PDK1(h) stood at 127%; on PRAK(h) it was 144%; at Ret(h), 123%; on SRPK2(h) it was 87%; on Syk(h), 62%; at TAO3(h), 102%. The remaining activity at 10 µM at TSSK2(h) stood at 83%; at TTBK2(h) it was 87%; at TrkB(h), 81%; on ULK1(h), 65%; at cKit(V654A)(h), 92%.
